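Protocol summary: plate cells (96-well), add compound at 5 concentrations, incubate 48 h, interpolate endpoints linearly. TGI denotes the concentration required for complete inhibition of growth.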
Legend:
Test in all cases: NCI-60 cell line screen, 48 h
DLD-1 colon = tested on: DLD-1 colon
DMS 273 small cell lung = tested on: DMS 273 small cell lung
SF-268 CNS = tested on: SF-268 CNS
SK-MEL-2 melanoma = tested on: SK-MEL-2 melanoma
NCI-H226 lung = tested on: NCI-H226 lung
LXFL 529 NSCLC = tested on: LXFL 529 NSCLC
KM20L2 colon = tested on: KM20L2 colon
U251 CNS = tested on: U251 CNS
HT29 colon = tested on: HT29 colon
NCI-H522 lung = tested on: NCI-H522 lung
SR leukemia = tested on: SR leukemia
RXF-631 renal = tested on: RXF-631 renal
SK-OV-3 ovarian = tested on: SK-OV-3 ovarian
CCRF-CEM leukemia = tested on: CCRF-CEM leukemia
OVCAR-4 ovarian = tested on: OVCAR-4 ovarian
786-0 renal = tested on: 786-0 renal
M14 melanoma = tested on: M14 melanoma
NCI-H460 lung = tested on: NCI-H460 lung
KM12 colon = tested on: KM12 colon
A498 renal = tested on: A498 renal
SK-MEL-28 melanoma = tested on: SK-MEL-28 melanoma
OVCAR-3 ovarian = tested on: OVCAR-3 ovarian
DMS 114 small cell lung = tested on: DMS 114 small cell lung
XF 498 CNS = tested on: XF 498 CNS
MALME-3M melanoma = tested on: MALME-3M melanoma
K-562 leukemia = tested on: K-562 leukemia
UO-31 renal = tested on: UO-31 renal
HOP-62 NSCLC = tested on: HOP-62 NSCLC
SF-295 CNS = tested on: SF-295 CNS
HCT-116 colon = tested on: HCT-116 colon
NCI-H23 lung = tested on: NCI-H23 lung
TK-10 renal = tested on: TK-10 renal
OVCAR-8 ovarian = tested on: OVCAR-8 ovarian
OVCAR-5 ovarian = tested on: OVCAR-5 ovarian
ACHN renal = tested on: ACHN renal
SF-539 CNS = tested on: SF-539 CNS
HCC-2998 colon = tested on: HCC-2998 colon
COLO 205 colon = tested on: COLO 205 colon
HOP-92 NSCLC = tested on: HOP-92 NSCLC
HL-60(TB) leukemia = tested on: HL-60(TB) leukemia
IGROV1 ovarian = tested on: IGROV1 ovarian
UACC-257 melanoma = tested on: UACC-257 melanoma
M19-MEL melanoma = tested on: M19-MEL melanoma
SN12C renal = tested on: SN12C renal
HCT-15 colon = tested on: HCT-15 colon
A549 NSCLC = tested on: A549 NSCLC
CAKI-1 renal = tested on: CAKI-1 renal
SNB-19 CNS = tested on: SNB-19 CNS
HOP-18 NSCLC = tested on: HOP-18 NSCLC
MOLT-4 leukemia = tested on: MOLT-4 leukemia
RPMI-8226 leukemia = tested on: RPMI-8226 leukemia
UACC-62 melanoma = tested on: UACC-62 melanoma
SW-620 colon = tested on: SW-620 colon
LOX IMVI melanoma = tested on: LOX IMVI melanoma
SNB-75 CNS = tested on: SNB-75 CNS
RXF 393 renal = tested on: RXF 393 renal
EKVX NSCLC = tested on: EKVX NSCLC
SNB-78 CNS = tested on: SNB-78 CNS
SK-MEL-5 melanoma = tested on: SK-MEL-5 melanoma

**Q.** For C[C@]12CCCC(=O)C1C[C@H](C(=O)O)CC2 (some centres undefined), which TGI (DLD-1 colon) is on record?
**A.** > 100 µM

**Q.** What about the TGI (DMS 273 small cell lung) of the same compound?
**A.** > 100 µM

**Q.** And the TGI (SF-268 CNS)?
**A.** > 100 µM

**Q.** And the TGI (SK-MEL-2 melanoma)?
**A.** > 100 µM

**Q.** What about the TGI (NCI-H226 lung) of the same compound?
**A.** > 100 µM

**Q.** What about the TGI (LXFL 529 NSCLC) of the same compound?
**A.** > 100 µM

**Q.** What about the TGI (KM20L2 colon) of the same compound?
**A.** > 100 µM

**Q.** What about the TGI (U251 CNS) of the same compound?
**A.** > 100 µM

**Q.** What about the TGI (HT29 colon) of the same compound?
**A.** > 100 µM

**Q.** And the TGI (NCI-H522 lung)?
**A.** > 100 µM

**Q.** What about the TGI (SR leukemia) of the same compound?
**A.** > 100 µM

**Q.** What about the TGI (RXF-631 renal) of the same compound?
**A.** > 100 µM

**Q.** What about the TGI (SK-OV-3 ovarian) of the same compound?
**A.** > 100 µM

**Q.** What about the TGI (CCRF-CEM leukemia) of the same compound?
**A.** > 100 µM

**Q.** What about the TGI (OVCAR-4 ovarian) of the same compound?
**A.** > 100 µM

**Q.** What about the TGI (786-0 renal) of the same compound?
**A.** > 100 µM

**Q.** And the TGI (M14 melanoma)?
**A.** > 100 µM

**Q.** And the TGI (NCI-H460 lung)?
**A.** > 100 µM

**Q.** What about the TGI (KM12 colon) of the same compound?
**A.** > 100 µM

**Q.** And the TGI (A498 renal)?
**A.** > 100 µM

**Q.** What about the TGI (SK-MEL-28 melanoma) of the same compound?
**A.** > 100 µM

**Q.** And the TGI (OVCAR-3 ovarian)?
**A.** > 100 µM

**Q.** And the TGI (DMS 114 small cell lung)?
**A.** > 100 µM

**Q.** What about the TGI (XF 498 CNS) of the same compound?
**A.** > 100 µM

**Q.** What about the TGI (MALME-3M melanoma) of the same compound?
**A.** > 100 µM

**Q.** What about the TGI (K-562 leukemia) of the same compound?
**A.** > 100 µM

**Q.** And the TGI (UO-31 renal)?
**A.** > 100 µM

**Q.** What about the TGI (HOP-62 NSCLC) of the same compound?
**A.** > 100 µM

**Q.** What about the TGI (SF-295 CNS) of the same compound?
**A.** > 100 µM

**Q.** And the TGI (HCT-116 colon)?
**A.** > 100 µM

**Q.** And the TGI (NCI-H23 lung)?
**A.** > 100 µM

**Q.** And the TGI (TK-10 renal)?
**A.** > 100 µM

**Q.** What about the TGI (OVCAR-8 ovarian) of the same compound?
**A.** > 100 µM

**Q.** And the TGI (OVCAR-5 ovarian)?
**A.** > 100 µM

**Q.** What about the TGI (ACHN renal) of the same compound?
**A.** > 100 µM

**Q.** And the TGI (SF-539 CNS)?
**A.** > 100 µM

**Q.** What about the TGI (HCC-2998 colon) of the same compound?
**A.** > 100 µM

**Q.** And the TGI (COLO 205 colon)?
**A.** > 100 µM

**Q.** What about the TGI (HOP-92 NSCLC) of the same compound?
**A.** > 100 µM

**Q.** What about the TGI (HL-60(TB) leukemia) of the same compound?
**A.** > 100 µM

**Q.** And the TGI (IGROV1 ovarian)?
**A.** > 100 µM

**Q.** And the TGI (UACC-257 melanoma)?
**A.** > 100 µM

**Q.** What about the TGI (M19-MEL melanoma) of the same compound?
**A.** > 100 µM

**Q.** What about the TGI (SN12C renal) of the same compound?
**A.** > 100 µM

**Q.** What about the TGI (HCT-15 colon) of the same compound?
**A.** > 100 µM

**Q.** What about the TGI (A549 NSCLC) of the same compound?
**A.** > 100 µM

**Q.** And the TGI (CAKI-1 renal)?
**A.** > 100 µM

**Q.** What about the TGI (SNB-19 CNS) of the same compound?
**A.** > 100 µM

**Q.** What about the TGI (HOP-18 NSCLC) of the same compound?
**A.** > 100 µM

**Q.** And the TGI (MOLT-4 leukemia)?
**A.** > 100 µM

**Q.** What about the TGI (RPMI-8226 leukemia) of the same compound?
**A.** > 100 µM

**Q.** What about the TGI (UACC-62 melanoma) of the same compound?
**A.** > 100 µM

**Q.** And the TGI (SW-620 colon)?
**A.** > 100 µM

**Q.** What about the TGI (LOX IMVI melanoma) of the same compound?
**A.** > 100 µM

**Q.** And the TGI (SNB-75 CNS)?
**A.** > 100 µM

**Q.** What does the source list for N#Cc1ccccc1Nc1ccccc1S?
**A.** TGI (DLD-1 colon): > 100 µM; TGI (DMS 273 small cell lung): > 100 µM; TGI (SF-268 CNS): > 100 µM; TGI (SK-MEL-2 melanoma): > 100 µM; TGI (NCI-H226 lung): 43.9 µM; TGI (LXFL 529 NSCLC): 59.3 µM; TGI (HT29 colon): > 100 µM; TGI (SR leukemia): > 100 µM; TGI (RXF-631 renal): > 100 µM; TGI (RXF 393 renal): 53 µM; TGI (SK-OV-3 ovarian): > 100 µM; TGI (CCRF-CEM leukemia): 77.4 µM; TGI (OVCAR-4 ovarian): > 100 µM; TGI (786-0 renal): 78.3 µM; TGI (NCI-H460 lung): > 100 µM; TGI (KM12 colon): > 100 µM; TGI (A498 renal): > 100 µM; TGI (EKVX NSCLC): > 100 µM; TGI (SK-MEL-28 melanoma): > 100 µM; TGI (DMS 114 small cell lung): 42.8 µM; TGI (XF 498 CNS): 40 µM; TGI (MALME-3M melanoma): 80.3 µM; TGI (K-562 leukemia): > 100 µM; TGI (UO-31 renal): 72.4 µM; TGI (HOP-62 NSCLC): > 100 µM; TGI (SF-295 CNS): 65.4 µM; TGI (NCI-H23 lung): > 100 µM; TGI (SNB-78 CNS): > 100 µM; TGI (SK-MEL-5 melanoma): 44.8 µM; TGI (TK-10 renal): > 100 µM; TGI (OVCAR-8 ovarian): 94 µM; TGI (OVCAR-5 ovarian): 97.8 µM; TGI (ACHN renal): > 100 µM; TGI (SF-539 CNS): 35.8 µM; TGI (COLO 205 colon): > 100 µM; TGI (HOP-92 NSCLC): 80.3 µM; TGI (HL-60(TB) leukemia): > 100 µM; TGI (IGROV1 ovarian): 71.2 µM; TGI (UACC-257 melanoma): > 100 µM; TGI (M19-MEL melanoma): > 100 µM; TGI (SN12C renal): 97.1 µM; TGI (A549 NSCLC): > 100 µM; TGI (CAKI-1 renal): > 100 µM; TGI (SNB-19 CNS): 60.5 µM; TGI (HOP-18 NSCLC): > 100 µM; TGI (MOLT-4 leukemia): 33.1 µM; TGI (UACC-62 melanoma): 37.8 µM; TGI (SW-620 colon): 47.1 µM; TGI (LOX IMVI melanoma): 33.6 µM

— PubChem BioAssay (NCI)
